Here are results for 22 molecules from the supplement of paper PMC8498969.

Assay [1] deals with HEK293. Put plainly: IC50 for inhibition of ZIKV NS1 production. The protocol: (§1)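 HEK293 cells in 1536-well plates were pre-treated with compound for 1 h, infected with ZIKV (MOI 1) for 24 h, and NS1 antigen (intra- plus extracellular) was measured by TR-FRET. Confirmation used 11-point 1:3 dilutions, and IC50 and maximal inhibition were fitted in GraphPad Prism.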
The subject of assay [2] is HEK293. In words: cytotoxicity IC50 (ATP content, uninfected cells); higher = less cytotoxic. As to conditions: infection: none.
For assay [3], the system named is HEK293. Put plainly: maximal inhibition of ZIKV NS1 production (% inhibition); higher = stronger antiviral effect. The protocol: as §1

What is called IC50 is the midpoint of a concentration-inhibition curve. In the case of `COc1cccc2c1C(=O)c1c(O)c3c(c(O)c1C2=O)C[C@@](O)(C(=O)CO)C[C@@H]3O[C@H]1C[C@H](N)[C@@H](O)[C@H](C)O1`, the IC50 with HEK293 [1] is 0.49 µM. The “cytotoxicity IC50” value in the assay with HEK293 [2] is more than 100 µM. The molecule also registered a maximal inhibition in the assay on HEK293 [3] of 84.

For the molecule `O=C1C(SCCO)=C(SCCO)C(=O)c2ccccc21`, the IC50 with HEK293 [1] is 5.5 µM. The “cytotoxicity IC50” value in the assay on HEK293 [2] turned out to be 5.3 µM. In the assay with HEK293 [3], this molecule yielded a maximal inhibition of 97.

`CC[C@]1(O)C[C@@H]2CN(CCc3c([nH]c4ccccc34)[C@@](C(=O)OC)(c3cc4c(cc3OC)N(C)[C@H]3[C@@](O)(C(=O)OC)[C@H](OC(C)=O)[C@]5(CC)C=CCN6CC[C@]43[C@@H]65)C2)C1` displayed an IC50 in the assay with HEK293 [1] of 5.6 µM. The “cytotoxicity IC50” value with HEK293 [2] was more than 100 µM. In the assay on HEK293 [3], this molecule registered a maximal inhibition of 73.

Turning to `Clc1ccc(CCC(Cn2ccnc2)Sc2c(Cl)cccc2Cl)cc1` (stereo not given), the IC50 with HEK293 [1] stood at 39 µM. Besides, the “cytotoxicity IC50” value in the assay on HEK293 [2] was 16 µM. This molecule also returned a maximal inhibition in the assay with HEK293 [3] of 97.

In the assay with HEK293 [1], `COc1cc([C@@H]2c3cc4c(cc3[C@@H](O[C@@H]3O[C@@H]5CO[C@@H](c6cccs6)O[C@H]5[C@H](O)[C@H]3O)[C@H]3COC(=O)[C@H]23)OCO4)cc(OC)c1O` displayed an IC50 of 1.2 µM. For the same molecule, the “cytotoxicity IC50” value in the assay on HEK293 [2] was more than 100 µM. In the assay on HEK293 [3], this molecule displayed a maximal inhibition of 100.

Take `CCC[C@@H](C=O)NC(=O)[C@H](CC(C)C)NC(=O)[C@H](CC(C)C)NC(=O)OCc1ccccc1`: the IC50 with HEK293 [1] was 1.6 µM. In the assay on HEK293 [2], the “cytotoxicity IC50” value came out at 2.4 µM. For the same molecule, the maximal inhibition in the assay with HEK293 [3] stood at 94.

In turn, `Cc1c(N)nc([C@H](CC(N)=O)NC[C@@H](N)C(N)=O)nc1C(=O)N[C@H](C(=O)N[C@@H](C)[C@H](O)[C@@H](C)C(=O)N[C@@H](C(=O)NCCc1nc(-c2nc(C(=O)NCCC[S+](C)C)cs2)cs1)[C@@H](C)O)C(O[C@H]1O[C@H](CO)[C@H](O)[C@@H](O)[C@H]1O[C@H]1O[C@H](CO)[C@@H](O)[C@H](OC(N)=O)[C@@H]1O)c1cnc[nH]1` (stereo not given in full) gave an IC50 in the assay on HEK293 [1] of 6.3 µM. For the same molecule, the “cytotoxicity IC50” value in the assay with HEK293 [2] is more than 100 µM. In the assay with HEK293 [3], this molecule had a maximal inhibition of 103.

In the case of `CCC1=C[C@@H]2CN(C1)Cc1c([nH]c3ccccc13)[C@@](C(=O)OC)(c1cc3c(cc1OC)N(C)[C@H]1[C@@](O)(C(=O)OC)[C@H](OC(C)=O)[C@]4(CC)C=CCN5CC[C@]31[C@@H]54)C2`, in the assay on HEK293 [1], the IC50 worked out at 0.27 µM. The “cytotoxicity IC50” value with HEK293 [2] is more than 100 µM. Further, in the assay with HEK293 [3], the maximal inhibition turned out to be 95.

`O=C(Nc1ccc([N+](=O)[O-])cc1Cl)c1cc(Cl)ccc1O`: the IC50 with HEK293 [1] was 8.3 µM. In addition, in the assay with HEK293 [2], the “cytotoxicity IC50” value worked out at 3.3 µM. The molecule also registered a maximal inhibition with HEK293 [3] of 102.

In the assay with HEK293 [1], `O=C(NC1CCNCC1)c1n[nH]cc1NC(=O)c1c(Cl)cccc1Cl` had an IC50 of 3.1 µM. The “cytotoxicity IC50” value in the assay on HEK293 [2] is 22 µM. The same molecule showed a maximal inhibition with HEK293 [3] of 91.

With `CC(C)(O)Cn1c(NC(=O)c2ccc(-c3cn[nH]c3)s2)nc2cc(CN3CCOCC3)ccc21`, in the assay on HEK293 [1], the IC50 is 8.3 µM. Further, in the assay on HEK293 [2], the “cytotoxicity IC50” value is more than 100 µM. Further, in the assay with HEK293 [3], the maximal inhibition is 103.

In turn, `O[C@@H](CNC[C@H](O)[C@H]1CCc2cc(F)ccc2O1)[C@@H]1CCc2cc(F)ccc2O1` registered an IC50 in the assay with HEK293 [1] of 24 µM. In addition, the “cytotoxicity IC50” value in the assay with HEK293 [2] is more than 100 µM. This molecule yielded a maximal inhibition in the assay with HEK293 [3] of 94.

As to `Cc1cc(Nc2cc(NC(=O)c3c(Cl)cccc3Cl)ccn2)nc(N)n1`, in the assay on HEK293 [1], the IC50 was determined as 35 µM. Besides, the “cytotoxicity IC50” value in the assay with HEK293 [2] turned out to be 70 µM. The molecule further returned a maximal inhibition in the assay with HEK293 [3] of 97.

For `CCc1ccc(OCc2ccccc2C(=O)Nc2ccc3nc(C)cc(N)c3c2)cc1`, the IC50 with HEK293 [1] was 14 µM. For the same molecule, in the assay with HEK293 [2], the “cytotoxicity IC50” value came out at 11 µM. Besides, the maximal inhibition in the assay on HEK293 [3] was 104.

`CN1CC[C@H](c2c(O)cc(O)c3c(=O)cc(-c4ccccc4Cl)oc23)[C@H](O)C1` showed an IC50 in the assay with HEK293 [1] of 1.2 µM. In the assay on HEK293 [2], the “cytotoxicity IC50” value is more than 100 µM. This molecule showed a maximal inhibition in the assay with HEK293 [3] of 93.

On to `S=c1nc[nH]c2nc[nH]c12`, for which the IC50 in the assay on HEK293 [1] came to 12 µM. The “cytotoxicity IC50” value in the assay with HEK293 [2] came out at 6.5 µM. Moreover, the maximal inhibition in the assay with HEK293 [3] amounted to 99.

On to `COc1cccc2c1C(=O)c1c(O)c3c(c(O)c1C2=O)C[C@@](O)(C(C)=O)C[C@@H]3O[C@H]1C[C@H](N)[C@H](O)[C@H](C)O1`, for which the IC50 in the assay with HEK293 [1] was found to be 0.54 µM. Also, in the assay with HEK293 [2], the “cytotoxicity IC50” value was more than 100 µM. Also, the maximal inhibition in the assay on HEK293 [3] was 66.

Molecule `CC(=O)O[C@@]12CO[C@@H]1C[C@H](O)[C@@]1(C)C(=O)[C@H](O)C3=C(C)[C@@H](OC(=O)[C@H](O)[C@@H](NC(=O)OC(C)(C)C)c4ccccc4)C[C@@](O)([C@@H](OC(=O)c4ccccc4)[C@H]21)C3(C)C` displayed an IC50 in the assay with HEK293 [1] of 50 µM. For the same molecule, the “cytotoxicity IC50” value in the assay with HEK293 [2] was more than 100 µM. The same molecule yielded a maximal inhibition with HEK293 [3] of 66.

As to `CCC(=O)N1CCN(c2ccc(-n3c(=O)ccc4cnc5ccc(-c6cnc7ccccc7c6)cc5c43)cc2C(F)(F)F)CC1`, the “cytotoxicity IC50” value in the assay with HEK293 [2] was 1.5 µM.

For `CC(C)(C)CC(C)(C)c1ccc(OCCOCC[N+](C)(C)Cc2ccccc2)cc1`, the IC50 in the assay on HEK293 [1] came out at 9 µM. For the same molecule, the maximal inhibition with HEK293 [3] was 103.

On to `CC[C@@H]1C(=O)N(C)c2cnc(Nc3ccc(C(=O)NC4CCN(C)CC4)cc3OC)nc2N1C1CCCC1`, for which the “cytotoxicity IC50” value in the assay with HEK293 [2] is more than 100 µM.

In the case of `CCc1cnn2c(NCc3ccc[n+]([O-])c3)cc(N3CCCC[C@H]3CCO)nc12`, the “cytotoxicity IC50” value with HEK293 [2] is more than 100 µM. The same molecule displayed a maximal inhibition in the assay on HEK293 [3] of 90.
